# According to patent US20080269241A1, “BICYCLIC AMINOPROPYL TETRAHYDRO-PYRAZOLO-PYRIDINE MODULATORS OF CATHEPSIN S” (priority 2007, published 2008):
# Where two headings read alike, the source gives them in different places.
# Molecular target: T1, human cathepsin S (CatS) (Homo sapiens, UniProt P25774)
# T1 construct: made in house; host or cells: baculovirus system (insect cells)
# Assay: Recombinant human cathepsin S (CatS) fluorogenic substrate inhibition assay
# Format: biochemical
# Description: Recombinant human cathepsin S (CatS) was expressed in the baculovirus system and purified in one step with a thiopropyl-sepharose column. […] The assay is run in 150 mM sodium acetate pH 5.0 containing 1.5 mM DTT and 150 mM NaCl. […] Measurements are taken every min for 20 min. The rate is calculated from the slope of the increase in fluorescence and the percent inhibition is calculated from this.
# [1] = recombinant human CatS, 10 μM Z-Valine-Valine-Arginine-AMC, pH 5.0, average of results obtained, read-out: CatS IC50
# T1 sequence (P25774 115-331): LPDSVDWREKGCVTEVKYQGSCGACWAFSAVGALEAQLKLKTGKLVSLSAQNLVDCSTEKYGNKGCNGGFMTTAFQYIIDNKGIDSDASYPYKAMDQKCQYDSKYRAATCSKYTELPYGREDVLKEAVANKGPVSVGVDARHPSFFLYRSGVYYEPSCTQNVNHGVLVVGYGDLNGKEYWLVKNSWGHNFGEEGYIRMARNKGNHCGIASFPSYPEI
IC50 [1] [nM],IC50 [nM],SMILES
10,,"CC(C)=CC(=O)NCc1cc(-c2nn(CC(O)CN3CCC(c4ccccc4)CC3)c3c2CN(S(C)(=O)=O)CC3)ccc1C(F)(F)F (centres unmarked) [Example 274, 3-Methyl-but-2-enoic acid 5-{1-[2-hydroxy-3-(4-phenyl-piperidin-1-yl)-propyl]-5-methanesulfonyl-4,5,6,7-tetrahydro-1H-pyrazolo[4,3-c]pyridin-3-yl}-2-trifluoromethyl-benzylamide]"
10,,"CC(C)=CC(=O)NCc1cc(-c2nn(CC(O)CN3CCC(c4cccc(O)c4)CC3)c3c2CN(S(C)(=O)=O)CC3)ccc1C(F)(F)F (centres unmarked) [Example 275, 3-Methyl-but-2-enoic acid 5-(1-{2-hydroxy-3-[4-(3-hydroxy-phenyl)-piperidin-1-yl]-propyl}-5-methanesulfonyl-4,5,6,7-tetrahydro-1H-pyrazolo[4,3-c]pyridin-3-yl)-2-trifluoromethyl-benzylamide]"
90,,"CS(=O)(=O)N1CCc2c(c(-c3ccc(C(F)(F)F)c(CNC(=O)C4CC4)c3)nn2CC(O)CN2CCC(N3CCCC3=O)CC2)C1 (centres unmarked) [Example 276, Cyclopropanecarboxylic acid 5-(1-{2-hydroxy-3-[4-(2-oxo-pyrrolidin-1-yl)-piperidin-1-yl]-propyl}-5-methanesulfonyl-4,5,6,7-tetrahydro-1H-pyrazolo[4,3-c]pyridin-3-yl)-2-trifluoromethyl-benzylamide]"
140,,"CC(C)CC(=O)NCc1cc(-c2nn(CC(O)CN3CCC(c4nnn[nH]4)CC3)c3c2CN(S(C)(=O)=O)CC3)ccc1C(F)(F)F (centres unmarked) [Example 277, N-[5-(1-{2-Hydroxy-3-[4-(1H-tetrazol-5-yl)-piperidin-1-yl]-propyl}-5-methanesulfonyl-4,5,6,7-tetrahydro-1H-pyrazolo[4,3-c]pyridin-3-yl)-2-trifluoromethyl-benzyl]-3-methyl-butyramide]"
860,,"CC(C)CCNCc1cc(-c2nn(CC(O)CN3CCC(N4CCOCC4)CC3)c3c2CN(S(C)(=O)=O)CC3)ccc1C(F)(F)F (centres unmarked) [Example 282, 1-(5-Methanesulfonyl-3-{3-[(3-methyl-butylamino)-methyl]-4-trifluoromethyl-phenyl}-4,5,6,7-tetrahydro-pyrazolo[4,3-c]pyridin-1-yl)-3-(4-morpholin-4-yl-piperidin-1-yl)-propan-2-ol]"
60,,"CC(C)CC(=O)NCc1cc(-c2nn(CC(O)CN3CCC(C(=O)N4CCCC4)CC3)c3c2CN(S(C)(=O)=O)CC3)ccc1C(F)(F)F (centres unmarked) [Example 284, N-[5-(1-{2-Hydroxy-3-[4-(pyrrolidine-1-carbonyl)-piperidin-1-yl]-propyl}-5-methanesulfonyl-4,5,6,7-tetrahydro-1H-pyrazolo[4,3-c]pyridin-3-yl)-2-trifluoromethyl-benzyl]-3-methyl-butyramide]"
390,,"Cc1noc(C2CCCN(CC(O)Cn3nc(-c4ccc(C(F)(F)F)c(CNC(=O)CC(C)C)c4)c4c3CCN(S(C)(=O)=O)C4)C2)n1 (centres unmarked) [Example 285, N-[5-(1-{2-Hydroxy-3-[3-(3-methyl-[1,2,4]oxadiazol-5-yl)-piperidin-1-yl]-propyl}-5-methanesulfonyl-4,5,6,7-tetrahydro-1H-pyrazolo[4,3-c]pyridin-3-yl)-2-trifluoromethyl-benzyl]-3-methyl-butyramide]"
30,,"Cc1noc(C2CCN(CC(O)Cn3nc(-c4ccc(C(F)(F)F)c(CNC(=O)CC(C)C)c4)c4c3CCN(S(C)(=O)=O)C4)CC2)n1 (centres unmarked) [Example 286, N-[5-(1-{2-Hydroxy-3-[4-(3-methyl-[1,2,4]oxadiazol-5-yl)-piperidin-1-yl]-propyl}-5-methanesulfonyl-4,5,6,7-tetrahydro-1H-pyrazolo[4,3-c]pyridin-3-yl)-2-trifluoromethyl-benzyl]-3-methyl-butyramide]"
,10,"CC(C)CC(=O)NCc1cc(-c2nn(CC(O)CN3CCC(c4ccccc4)CC3)c3c2CN(S(C)(=O)=O)CC3)ccc1C(F)(F)F (centres unmarked) [Example 288, N-(5-{1-[2-Hydroxy-3-(4-phenyl-piperidin-1-yl)-propyl]-5-methanesulfonyl-4,5,6,7-tetrahydro-1H-pyrazolo[4,3-c]pyridin-3-yl}-2-trifluoromethyl-benzyl)-3-methyl-butyramide]"
20,,"CS(=O)(=O)N1CCc2c(c(-c3ccc(C(F)(F)F)c(CNCc4ccc(F)cc4)c3)nn2CCCN2CCC(C3CCCCC3)CC2)C1 [Example 296, (5-{1-[3-(4-Cyclohexyl-piperidin-1-yl)-propyl]-5-methanesulfonyl-4,5,6,7-tetrahydro-1H-pyrazolo[4,3-c]pyridin-3-yl}-2-trifluoromethyl-benzyl)-(4-fluoro-benzyl)-amine]"

SMILES,IC50 [1] [nM],IC50 [nM]
"CC(C)CC(=O)NCc1cc(-c2nn(CC(O)CN3CCC(O)(c4ccc(Br)cc4)CC3)c3c2CN(S(C)(=O)=O)CC3)ccc1C(F)(F)F (centres unmarked) [Example 287, N-[5-(1-{3-[4-(4-Bromo-phenyl)-4-hydroxy-piperidin-1-yl]-2-hydroxy-propyl}-5-methanesulfonyl-4,5,6,7-tetrahydro-1H-pyrazolo[4,3-c]pyridin-3-yl)-2-trifluoromethyl-benzyl]-3-methyl-butyramide]",60,
